Entries after “also recorded” stand apart in the source; their conditions may differ.
What was measured:
EGFR, ErbB2, and ErbB3 = assay: Western blot of ErbB family RTK glycosylation, phosphorylation and protein levels in glioma cells; assay type: cell-based
Protocol: In this study, the D54, SKMG3, U251, T98G and 42-MG glioma cell lines were used. The source of D54, SKMG3 and U251 cells has been described previously (Contessa at al., Clin Cancer Res., 16:3205-14 (2010), Lopez et al., Int J Radiat Oncol Biol Phys., 69:214-20 (2007)). The 42-MG and T98G cells were provided by Todd Waldman (Georgetown University) and Dr. Ranjit Bindra (Yale University), respectively. The cells were cultured in DMEM/F12 (D54 and T98G), DMEM (42-MG and U251) or RPMI 1640 (SKMG3)+10% FBS supplemented with penicillin and streptomycin (Gibco, Life Technologies, Grand Island, N.Y., US) in a humidified incubator with 5% CO2, and they were kept in culture no more than 6 months after resuscitation from the original stocks. […] Mycoplasma cell culture contamination was routinely checked and ruled out using a biochemical test (MycoAlert Mycoplasma Detection Kit from Lonza, Rockland, Me. USA). Tunicamycin was purchased from Calbiochem/EMD-millipore (Burlington, Mass., USA). Cetuximab and Erlotinib were purchased at Selleck Chemicals LLC (Houston, Tex., USA). Luciferin was supplied by Promega (Madison, Wis. USA). For in vitro experiments, radiation (XRT) was administered at room temperature using a Precision X-ray 320-kV orthovoltage unit at a dose rate of 2 Gy/45 seconds (PXI X-Ray Systems) with 2 mm aluminum filter. For in vivo studies, radiation was administered at room temperature using a Precision X-ray 250-kV orthovoltage unit at a dose rate of 6.42 Gy/min (PXI X-Ray Systems) with 2 mm aluminum filter. Quality Assurance for both irradiators was performed monthly using a P.T.W. 0.3 cm^3 Ionization Chamber calibrated to NIST standards and quarterly dosimetry using thermoluminescent dosimeter (TLD)-based or ferrous sulfate-based dosimeters.

CD8-EGFR = assay: Western blot of CD8-EGFR phosphorylation in SKMG3-CD8-EGFR cells; assay type: cell-based, human; details: SKMG3 cells with stable expression of the CD8-EGFR
Protocol: The CD8 cDNA was a gift from Paula Kavathas (Yale University). The CD8-EGFR was constructed according to a strategy that generated a constitutively active IGF-1R (24). The extracellular domain of CD8 was PCR amplified with a 5′ XbaI and 3′ SalI restriction site and cloned in-frame with the intracellular kinase domain of EGFR using the pDCB5-EGFR plasmid. SKMG3-CD8-EGFR cells were generated by Lipofectamine (Life Technologies) transfection of the plasmid followed by selection with 500 μg/ml G418.

H1975 and H1975-OR cells = assay: MTT proliferation assay; assay type: cell-based; details: both parental and H1975-OR cell lines; 10 μM NGI-1, 5 days
Protocol: (§1) The H1975 and A549 cell lines were purchased from ATCC (Manassas, Va.), the PC9 cell line was a gift from Katie Politi, and the HCC-827 and HCC-827-GR lines were gifts from Jeff Engelman (MGH, Boston Mass.). Cell lines were cultured in RPMI 1640+10% FBS supplemented with penicillin and streptomycin (Gibco, Life Technologies, Grand Island, N.Y., US) in a humidified incubator with 5% CO2, and they were kept in culture no more than 4 months after resuscitation from the original stocks. No additional authentication was performed. Mycoplasma cell culture contamination was routinely checked and ruled out using the MycoAlert Mycoplasma Detection Kit (Lonza, Rockland, Me. USA). To generate a TKI resistant cell lines, either PC9 or H1975 cells were exposed to increasing concentrations of gefitinib or osimertinib, respectively. Gefitinib or Osimertinib concentrations were increased stepwise when cells resumed growth kinetics similar to the untreated parental cells over a dose range from 10 to 500 nM. Resistant cell cultures were obtained ˜8-12 weeks after initiation of drug exposure. To confirm the emergence of a therapeutic resistant, MTT assays were performed after allowing the cells to grow in drug-free conditions for at least 4 days.
(§2) Growth rates were determined by CellTiter 96 NonRadioactive Cell Proliferation Assay (Promega; Madison, Wis., USA) according to the manufacturer's directions. Briefly, NSCLC cells (2×103) untreated or treated with 10 μM NGI-1, 100 nM Gefitinib, or 1 μM Osimertinib (Selleck Chemicals), were seeded in triplicate in 96-wells plates and grown in culture medium containing 10% serum. The media was changed with or without new inhibitor every 48 h. Cell numbers were estimated after 0, 3, and 5 days by adding MTT (3-(4,5-dimethylthiazol-2-yl)-2,5-diphenyltetrazolium bromide) reagent to the wells 4 h before taking the spectrophotometric reading (absorbance at 570 nm).

[1] = tested on: HCC827 and HCC827-GR cells; assay: MTT proliferation assay; assay type: cell-based; details: both parental and HCC827-GR cells; 10 μM NGI-1, 5 days
Protocol: as §1, §2

PC9 and PC9-GR cells = assay: MTT proliferation assay; assay type: cell-based; details: both parental and T790M expressing PC9 cell lines; 10 μM NGI-1, 5 days
Protocol: as §1, §2

EGFR = target: T1, EGFR (Homo sapiens, UniProt P00533, DEL746-750); assay type: cell-based; details: HCC827-GR cells
T1 construct: endogenous in cells; host or cells: HCC827-GR NSCLC cells (MET amplified)
Protocol: Immunoprecipitation of EGFR was performed on whole cell lysate of intact HCC827 and HCC827-GR cell monolayers using Protein A magnetic beads (Cell Signaling) to isolate EGFR coupled to rabbit anti-EGFR (1:100) antibody from Cell Signaling (Danvers, Mass., USA). Equilibrated Protein A magnetic beads equilibrated with a whole cell lysate were used as negative controls for non-specific protein binding. […] The nitrocellulose-bound primary antibodies, were detected with anti-rabbit IgG horseradish peroxidase-linked antibody or anti-mouse IgG horseradish peroxidase-linked antibody (EMD Millipore; Temecula, Calif. USA), and were detected by the enhanced chemoluminescence staining ECL (GE Healthcare-Amersham Pharmacia, Buckinghamshire, U.K.).

Solubility = assay type: physicochemical

Structure (SMILES): Cc1cnc(NC(=O)c2cc(S(=O)(=O)N(C)C)ccc2N2CCCC2)s1 [NGI-1, 5-(dimethylsulfamoyl)-N-(5-methyl-1,3-thiazol-2-yl)-2-(pyrrolidin-1-yl)benzamide]
- ErbB3 protein levels (EGFR, ErbB2, and ErbB3; D54 and SKMG3 cell lines): reduction of ErbB3 protein levels
- ErbB2 protein levels (EGFR, ErbB2, and ErbB3; SKMG3): reduction in ErbB2 protein levels
- EGFR protein levels (as cause of reduced EGFR phosphorylation) (EGFR, ErbB2, and ErbB3; SKMG3 and D54 cell lines): not caused by decreases in EGFR protein levels
- glycosylation of EGFR, ErbB2, and ErbB3 (protein gel mobility on western blot) (EGFR, ErbB2, and ErbB3; SKMG3 and D54 cell lines): reduced glycosylation
- phosphorylation of EGFR, ErbB2, and ErbB3 (EGFR, ErbB2, and ErbB3; SKMG3 and D54 cell lines): reduced
- CD8-EGFR phosphorylation (phospho-Y1068, phospho-Y845) (CD8-EGFR): resistant
- reduction of proliferation (H1975 and H1975-OR cells): more than 70%
- reduction of proliferation [1]: 80%
- reduction of proliferation (PC9 and PC9-GR cells): ~90%
- EGFR phosphorylation (EGFR): significantly reduced
- solubility (Solubility): low solubility; also recorded: solubility remains a significant challenge

Reference: patent US10765638B2, “Particle formulation with polycation complex” (Yale University, priority 2017, dated 2020)
